The subject of the assay is BDF1 mice, P388 leukemia ip, median survival T/C. The assay can be described thus: NCI In Vivo Anticancer Drug Screen. Data for tumor model P388 Leukemia (intraperitoneal) in B6D2F1 (BDF1) mice. To be noted: endpoint: median survival time, higher = longer survival. In outline:
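T/C = treated-group survival ÷ vehicle-control survival; tumour transplanted into mice before dosing.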

The mark [1] stands for this setting: dose: 25.0 mg/kg/injection, schedule: Q01DX009 (ip), vehicle: saline with Tween-80.
[2] abbreviates: dose: 50.0 mg/kg/injection, schedule: Q01DX009 (ip), vehicle: saline with Tween-80.
Setting [3] is: dose: 100.0 mg/kg/injection, schedule: Q04DX003 (ip), vehicle: saline with Tween-80.
[4] abbreviates: dose: 200.0 mg/kg/injection, schedule: Q04DX003 (ip), vehicle: saline with Tween-80.
[5] abbreviates: dose: 100.0 mg/kg/injection, schedule: Q01DX009 (ip), vehicle: saline with Tween-80.
[6] abbreviates: dose: 200.0 mg/kg/injection, schedule: Q01DX009 (ip), vehicle: saline with Tween-80.

Where “and” joins values, the source holds several entries; their conditions need not be identical. Equal entries are not always repeated. Inconclusive results and toxic doses are left out.

As for `Cc1ccc(S(=O)(=O)N2CC(O)CC2C(=O)O)cc1` (stereo not given), the T/C was 118 % of control (dose: 100.0 mg/kg/injection, schedule: Q01DX001 (ip), vehicle: saline with Tween-80); 100 % of control (dose: 200.0 mg/kg/injection, schedule: Q01DX001 (ip), vehicle: saline with Tween-80); 113 % of control (dose: 400.0 mg/kg/injection, schedule: Q01DX001 (ip), vehicle: saline with Tween-80).

As for `NC(=O)NO.NC(=O)NO.[Cl][Ni][Cl]`, the T/C (dose: 3.12 mg/kg/injection, schedule: Q01DX009 (ip), vehicle: saline) is 92 % of control.

Consider `Cc1ccc(N(N)c2ccc(C)cc2)cc1`, for which the T/C is, setting by setting: (dose: 50.0 mg/kg/injection, schedule: Q01DX009 (ip), vehicle: Klucel (hydroxypropylcellulose) (HPC)) 100 % of control; (dose: 50.0 mg/kg/injection, schedule: Q04DX003 (ip), vehicle: Klucel (hydroxypropylcellulose) (HPC)) 107 % of control; (dose: 100.0 mg/kg/injection, schedule: Q01DX009 (ip), vehicle: Klucel (hydroxypropylcellulose) (HPC)) 118 % of control; (dose: 100.0 mg/kg/injection, schedule: Q04DX003 (ip), vehicle: Klucel (hydroxypropylcellulose) (HPC)) 107 % of control; (dose: 200.0 mg/kg/injection, schedule: Q01DX009 (ip), vehicle: Klucel (hydroxypropylcellulose) (HPC)) 113 % of control; (dose: 200.0 mg/kg/injection, schedule: Q04DX003 (ip), vehicle: Klucel (hydroxypropylcellulose) (HPC)) 100 % of control.

For `CCCCCCCCCCCCCCCC(=O)N(c1ccc(NC(=O)Nc2ccc(N(C(=O)CCCCCCCCCCCCCCC)C(C)CCCN(CC)CC)cc2)cc1)C(C)CCCN(CC)CC` (stereo not given), the T/C is, setting by setting: (dose: 12.5 mg/kg/injection, schedule: Q01DX009 (ip), vehicle: saline with Tween-80) 94 % of control; under setting [1], 87 % of control; under setting [2], 97 % of control; under setting [3], 93 % of control; under setting [4], 99 % of control; (dose: 400.0 mg/kg/injection, schedule: Q04DX003 (ip), vehicle: saline with Tween-80) 102 % of control.

Take `CC(=O)SCCNCCNC1CC2CCC1C2` (stereo not given): the T/C by setting is: (dose: 5.75 mg/kg/injection, schedule: Q01DX009 (ip), vehicle: saline) 104 % of control; (dose: 11.5 mg/kg/injection, schedule: Q01DX009 (ip), vehicle: saline) 104 % of control.

As for `Cc1cc(NC(=O)Nc2ccc(C3=NCCCN3)cc2)ccc1NC(=O)Nc1ccc(C2=NCCCN2)cc1`, the T/C (dose: 29.0 mg/kg/injection, schedule: Q01DX009 (ip), vehicle: saline) is 166 % of control; the T/C (dose: 45.0 mg/kg/injection, schedule: Q01DX009 (ip), vehicle: saline) was 153 % of control; the T/C (dose: 65.0 mg/kg/injection, schedule: Q01DX009 (ip), vehicle: saline) is 157 % of control; the T/C (dose: 100.0 mg/kg/injection, schedule: Q01DX009 (ip), vehicle: saline) is 216 % of control; the T/C (dose: 130.0 mg/kg/injection, schedule: Q01DX009 (ip), vehicle: saline) was 243 % of control; the T/C (dose: 200.0 mg/kg/injection, schedule: Q01DX009 (ip), vehicle: saline) is 227 % of control and 219 % of control. The T/C by setting is: (dose: 300.0 mg/kg/injection, schedule: Q01DX009 (ip), vehicle: saline) 169 % of control; (dose: 400.0 mg/kg/injection, schedule: Q01DX009 (ip), vehicle: saline) 98 % of control.

Consider `CC(C)=CBr`, for which the T/C by setting is: (dose: 198.0 mg/kg/injection, schedule: Q01DX005 (ip), vehicle: saline) 92 % of control; (dose: 300.0 mg/kg/injection, schedule: Q01DX005 (ip), vehicle: saline) 100 % of control.

On to `COC(=O)c1ccc(SCCCN2CCOCC2)cc1`, for which the T/C by setting is: (dose: 100.0 mg/kg/injection, schedule: Q04DX003 (ip), vehicle: saline) 90 % of control; (dose: 200.0 mg/kg/injection, schedule: Q04DX003 (ip), vehicle: saline) 113 % of control.

For the compound `COc1cccc(/C=N/NC(=O)c2cc(C)nc3ccc(Br)cc23)c1O`, the T/C reads like this: under setting [2], 103 % of control; under setting [5], 103 % of control; under setting [6], 100 % of control.

As to `c1ccc(CCNCc2ccccc2)cc1`, the T/C under setting [1] is 100 % of control, the T/C under setting [2] was 100 % of control and the T/C under setting [5] was 100 % of control.

Take `CC1CC/C(=C\c2ccccc2)C(=O)/C1=C/c1ccccc1` (stereo not given): the T/C reads like this: (dose: 100.0 mg/kg/injection, schedule: Q04DX003 (ip), vehicle: DMSO) 112 % of control; (dose: 200.0 mg/kg/injection, schedule: Q04DX003 (ip), vehicle: DMSO) 87 % of control; (dose: 400.0 mg/kg/injection, schedule: Q04DX003 (ip), vehicle: DMSO) 87 % of control.

`O=C(NC(=O)c1c(F)cccc1F)Nc1nc2c(Cl)cccc2s1`: the T/C was 93 % of control under setting [2], 93 % of control under setting [5] and 94 % of control under setting [6].

As for `COC(=O)C(CSCSC)NC(=O)/C=C\c1ccccc1` (stereo not given), the T/C under setting [2] was 100 % of control; the T/C under setting [5] is 104 % of control; the T/C under setting [3] was 95 % of control; the T/C under setting [6] was 109 % of control; the T/C under setting [4] is 91 % of control; the T/C (dose: 400.0 mg/kg/injection, schedule: Q01DX009 (ip), vehicle: saline with Tween-80) is 90 % of control.

Turning to `ClCCN(CCCl)c1ccc(/C=C\c2ccnc3ccccc23)cc1`, the T/C was 104 % of control under setting [5] and 86 % of control under setting [6].

On to `Cc1ccc(N2CCNCC2)cc1`, for which the T/C is 95 % of control (dose: 6.25 mg/kg/injection, schedule: Q04DX003 (ip), vehicle: saline sonified); 100 % of control (dose: 12.5 mg/kg/injection, schedule: Q04DX003 (ip), vehicle: saline sonified); 100 % of control (dose: 25.0 mg/kg/injection, schedule: Q04DX003 (ip), vehicle: saline sonified).

With `COc1ccc2[nH]c3c(C)c4cc[n+](C)cc4c(C)c3c2c1`, the T/C (dose: 6.25 mg/kg/injection, schedule: Q01DX009 (ip), vehicle: saline with Tween-80) was 99 % of control.

`CC1CCc2c(ccc3ccccc23)C1=O` (stereo not given): the T/C is 92 % of control (dose: 100.0 mg/kg/injection, schedule: Q01DX009 (ip), vehicle: gum acacia); 107 % of control (dose: 100.0 mg/kg/injection, schedule: Q04DX003 (ip), vehicle: gum acacia); 100 % of control (dose: 200.0 mg/kg/injection, schedule: Q01DX009 (ip), vehicle: gum acacia); 103 % of control (dose: 200.0 mg/kg/injection, schedule: Q04DX003 (ip), vehicle: gum acacia); 100 % of control (dose: 400.0 mg/kg/injection, schedule: Q01DX009 (ip), vehicle: gum acacia); 89 % of control (dose: 400.0 mg/kg/injection, schedule: Q04DX003 (ip), vehicle: gum acacia).

The record behind these values is PubChem BioAssay AID328 (DTP/NCI, 2004).
